Positions of bridges follow the written chain, without caps; N, C: chain ends. Non-standard residues stand in square brackets, D forms with d. Residues, ends and D or L forms follow the SMILES beside them. Nva = CCC[C@H](N)C(=O)O; Abu = CC[C@H](N)C(=O)O
Assays:
Test in all cases: cell-based
hNav1.7 = hNav1.7 (Homo sapiens, UniProt Q15858); format: cell-based; conditions: IonWorks Quattro, use-dependent protocol, hNav1.7; read-out: IWQ Use Nav1.7
hNav1.5 = hNav1.5 (Homo sapiens, UniProt Q14524); conditions: IonWorks Quattro, use-dependent protocol, hNav1.5; read-out: IWQ Use Nav1.5
hNav1.3 = hNav1.3 (Homo sapiens, UniProt Q9NY46); conditions: IonWorks Quattro, use-dependent protocol, hNav1.3; read-out: IWQ Use Nav1.3
Chain of hNav1.3 (Q9NY46 whole entry, looked up): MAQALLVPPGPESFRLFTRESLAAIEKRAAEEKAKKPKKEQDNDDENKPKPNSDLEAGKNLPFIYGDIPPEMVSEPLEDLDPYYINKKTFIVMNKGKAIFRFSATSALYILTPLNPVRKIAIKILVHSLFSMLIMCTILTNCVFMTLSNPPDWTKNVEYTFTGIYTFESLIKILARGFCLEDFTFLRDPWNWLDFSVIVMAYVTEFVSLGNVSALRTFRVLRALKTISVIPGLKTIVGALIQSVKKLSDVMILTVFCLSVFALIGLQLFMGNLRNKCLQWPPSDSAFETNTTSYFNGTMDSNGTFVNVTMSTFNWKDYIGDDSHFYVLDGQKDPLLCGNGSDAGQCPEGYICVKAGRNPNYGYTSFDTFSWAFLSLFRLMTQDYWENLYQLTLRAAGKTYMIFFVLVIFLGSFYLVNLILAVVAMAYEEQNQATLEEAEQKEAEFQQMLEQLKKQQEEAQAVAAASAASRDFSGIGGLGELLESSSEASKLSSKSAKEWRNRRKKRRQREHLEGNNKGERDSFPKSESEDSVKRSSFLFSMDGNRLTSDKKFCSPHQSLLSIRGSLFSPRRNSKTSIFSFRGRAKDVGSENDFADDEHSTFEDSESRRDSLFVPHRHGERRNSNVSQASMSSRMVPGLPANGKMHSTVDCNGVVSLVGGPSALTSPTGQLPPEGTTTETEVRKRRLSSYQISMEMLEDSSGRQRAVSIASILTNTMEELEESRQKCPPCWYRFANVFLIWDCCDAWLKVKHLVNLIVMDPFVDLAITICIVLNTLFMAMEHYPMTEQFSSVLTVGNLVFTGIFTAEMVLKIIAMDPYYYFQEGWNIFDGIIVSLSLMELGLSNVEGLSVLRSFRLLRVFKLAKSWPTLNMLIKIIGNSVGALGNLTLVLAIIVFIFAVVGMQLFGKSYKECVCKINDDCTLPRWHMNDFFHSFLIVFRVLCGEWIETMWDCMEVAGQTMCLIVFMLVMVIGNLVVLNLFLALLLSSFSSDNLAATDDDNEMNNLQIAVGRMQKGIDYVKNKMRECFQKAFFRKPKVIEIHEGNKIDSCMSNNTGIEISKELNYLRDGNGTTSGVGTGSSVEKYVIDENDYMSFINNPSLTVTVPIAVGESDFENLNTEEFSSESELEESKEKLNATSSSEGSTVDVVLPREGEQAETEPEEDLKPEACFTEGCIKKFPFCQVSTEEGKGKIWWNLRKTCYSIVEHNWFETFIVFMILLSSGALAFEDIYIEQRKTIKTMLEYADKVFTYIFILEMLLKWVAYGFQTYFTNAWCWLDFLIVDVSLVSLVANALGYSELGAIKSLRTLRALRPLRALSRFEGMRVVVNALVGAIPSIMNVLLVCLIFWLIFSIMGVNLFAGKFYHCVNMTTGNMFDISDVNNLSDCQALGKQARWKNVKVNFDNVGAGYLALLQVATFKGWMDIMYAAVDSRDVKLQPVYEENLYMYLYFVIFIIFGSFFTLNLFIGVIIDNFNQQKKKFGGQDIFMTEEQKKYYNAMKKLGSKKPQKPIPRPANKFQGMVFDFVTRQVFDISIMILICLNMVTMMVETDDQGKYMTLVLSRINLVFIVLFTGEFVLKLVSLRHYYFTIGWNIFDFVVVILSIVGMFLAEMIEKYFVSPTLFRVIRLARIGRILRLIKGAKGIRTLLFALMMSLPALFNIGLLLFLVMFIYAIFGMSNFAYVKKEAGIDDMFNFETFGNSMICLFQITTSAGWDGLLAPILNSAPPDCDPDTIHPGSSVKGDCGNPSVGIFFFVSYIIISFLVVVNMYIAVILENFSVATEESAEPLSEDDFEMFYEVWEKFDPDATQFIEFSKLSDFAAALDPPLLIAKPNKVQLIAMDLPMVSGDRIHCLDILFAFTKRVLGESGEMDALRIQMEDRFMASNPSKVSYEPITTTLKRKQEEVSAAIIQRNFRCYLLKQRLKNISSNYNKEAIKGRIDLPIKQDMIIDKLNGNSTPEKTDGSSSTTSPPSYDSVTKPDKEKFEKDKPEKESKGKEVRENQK

Chain of hNav1.5 (Q14524 whole entry, looked up): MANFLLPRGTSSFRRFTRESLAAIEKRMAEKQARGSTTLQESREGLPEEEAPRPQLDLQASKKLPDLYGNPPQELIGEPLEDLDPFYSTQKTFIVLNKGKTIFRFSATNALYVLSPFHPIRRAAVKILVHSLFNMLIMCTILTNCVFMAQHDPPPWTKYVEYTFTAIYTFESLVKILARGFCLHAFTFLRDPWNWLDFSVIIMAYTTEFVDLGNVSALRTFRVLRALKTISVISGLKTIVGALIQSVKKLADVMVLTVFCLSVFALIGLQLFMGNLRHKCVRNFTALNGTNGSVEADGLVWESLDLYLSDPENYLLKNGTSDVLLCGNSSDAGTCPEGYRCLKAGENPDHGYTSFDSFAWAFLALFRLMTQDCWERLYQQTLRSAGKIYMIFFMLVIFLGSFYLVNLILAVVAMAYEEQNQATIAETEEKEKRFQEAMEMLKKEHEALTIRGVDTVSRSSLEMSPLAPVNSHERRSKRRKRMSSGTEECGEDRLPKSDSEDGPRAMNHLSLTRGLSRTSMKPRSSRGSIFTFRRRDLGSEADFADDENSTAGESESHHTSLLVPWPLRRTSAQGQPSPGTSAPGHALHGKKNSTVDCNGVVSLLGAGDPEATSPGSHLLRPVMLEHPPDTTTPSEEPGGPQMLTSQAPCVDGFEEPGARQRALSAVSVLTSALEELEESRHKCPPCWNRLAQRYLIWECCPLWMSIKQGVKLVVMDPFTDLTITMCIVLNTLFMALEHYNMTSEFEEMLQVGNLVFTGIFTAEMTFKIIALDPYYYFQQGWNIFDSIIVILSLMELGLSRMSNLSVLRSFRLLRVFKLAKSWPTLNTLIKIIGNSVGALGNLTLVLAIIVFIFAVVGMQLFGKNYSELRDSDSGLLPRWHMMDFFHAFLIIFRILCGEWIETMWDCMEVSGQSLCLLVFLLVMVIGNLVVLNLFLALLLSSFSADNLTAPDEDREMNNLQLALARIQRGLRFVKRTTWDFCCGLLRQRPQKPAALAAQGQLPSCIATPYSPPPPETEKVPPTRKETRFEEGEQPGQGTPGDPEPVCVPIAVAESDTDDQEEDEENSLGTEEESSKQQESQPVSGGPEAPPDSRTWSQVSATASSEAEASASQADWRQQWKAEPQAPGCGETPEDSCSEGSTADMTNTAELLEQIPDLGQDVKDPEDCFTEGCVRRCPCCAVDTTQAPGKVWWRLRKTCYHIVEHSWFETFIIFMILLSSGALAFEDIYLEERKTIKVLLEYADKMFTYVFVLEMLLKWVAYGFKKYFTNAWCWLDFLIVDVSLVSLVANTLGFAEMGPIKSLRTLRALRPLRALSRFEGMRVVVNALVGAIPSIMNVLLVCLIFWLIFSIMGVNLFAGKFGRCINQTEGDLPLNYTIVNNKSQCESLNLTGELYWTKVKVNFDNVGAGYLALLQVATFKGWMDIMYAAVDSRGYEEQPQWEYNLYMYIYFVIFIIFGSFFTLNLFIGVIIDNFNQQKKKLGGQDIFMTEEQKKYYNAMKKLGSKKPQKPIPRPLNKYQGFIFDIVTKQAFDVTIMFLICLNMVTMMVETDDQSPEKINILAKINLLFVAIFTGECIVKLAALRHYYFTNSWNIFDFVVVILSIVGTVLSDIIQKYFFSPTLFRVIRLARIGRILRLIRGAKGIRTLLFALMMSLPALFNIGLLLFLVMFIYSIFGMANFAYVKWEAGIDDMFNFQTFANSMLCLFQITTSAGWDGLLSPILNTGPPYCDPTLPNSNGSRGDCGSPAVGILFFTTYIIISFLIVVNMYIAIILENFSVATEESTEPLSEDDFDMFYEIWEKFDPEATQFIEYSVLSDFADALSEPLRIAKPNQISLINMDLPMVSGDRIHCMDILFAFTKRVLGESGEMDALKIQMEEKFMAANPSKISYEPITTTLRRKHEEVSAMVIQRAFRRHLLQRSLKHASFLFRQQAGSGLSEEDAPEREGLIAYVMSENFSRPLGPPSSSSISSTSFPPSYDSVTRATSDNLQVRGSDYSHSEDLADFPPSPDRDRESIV

Row | SMILES | IC50 (hNav1.7) | IC50 (hNav1.5) | IC50 (hNav1.3)
1 | CC[C@H](C)[C@@H]1NC(=O)[C@@H]2CSSC[C@@H]3NC(=O)[C@H](C(C)C)NC(=O)[C@H](CC(C)C)NC(=O)[C@H](CC(N)=O)NC(=O)[C@@H]4CCCN4C(=O)[C@H](CCCNC(=N)N)NC(=O)[C@H](CSSC[C@H](NC(=O)[C@@H](N)CC(=O)O)C(=O)N[C@@H](CC(C)C)C(=O)NCC(=O)N[C@@H](C(C)C)C(=O)N[C@@H](CCSC)C(=O)N[C@@H](CCCNC(=N)N)C(=O)N[C@@H](CCCCN)C(=O)N2)NC(=O)[C@H](CSSC[C@@H](C(=O)N[C@@H](CCCCN)C(=O)N[C@@H](Cc2ccc(O)cc2)C(=O)N[C@H](C(=O)N[C@@H](Cc2ccccc2)C(N)=O)C(C)C)NC(=O)[C@H](Cc2c[nH]c4ccccc24)NC(=O)[C@H](CCC(=O)O)NC(=O)[C@H](Cc2c[nH]cn2)NC(=O)[C@H]([C@@H](C)O)NC(=O)[C@H](CCCNC(=N)N)NC(=O)[C@H](CO)NC3=O)NC(=O)[C@H](CCCCN)NC(=O)[C@H](CC(=O)O)NC(=O)[C@H](CC(N)=O)NC(=O)[C@H](CC(=O)O)NC(=O)[C@@H]2CCCN2C1=O [compound 704] (H-DCLGVMRKCIPDNDKCCRPNLVCSRTHEWCKYVF-NH2; disulfide 2-17, 9-23, 16-30) | 0.99 µM | 49 µM | > 5 µM
2 | CCC[C@@H]1NC(=O)CNC(=O)[C@H](CC(C)C)NC(=O)[C@@H](NC(=O)[C@@H](N)CC(=O)O)CSSC[C@@H]2NC(=O)[C@@H]3CSSC[C@@H](C(=O)N[C@@H](CCCCN)C(=O)N[C@@H](Cc4ccc(O)cc4)C(=O)N[C@H](C(=O)N[C@@H](Cc4ccccc4)C(N)=O)C(C)C)NC(=O)[C@H](Cc4c[nH]c5ccccc45)NC(=O)[C@H](CCC(=O)O)NC(=O)[C@H](Cc4c[nH]cn4)NC(=O)[C@H]([C@@H](C)O)NC(=O)[C@H](CCCNC(=N)N)NC(=O)[C@H](CO)NC(=O)[C@H](CSSC[C@H](NC(=O)[C@H](CCCCN)NC(=O)[C@H](CCCNC(=N)N)NC(=O)[C@H](CCSC)NC1=O)C(=O)N[C@@H]([C@@H](C)CC)C(=O)N1CCC[C@H]1C(=O)N[C@@H](CC(=O)O)C(=O)N[C@@H](CC(N)=O)C(=O)N[C@@H](CC(=O)O)C(=O)N[C@@H](CCCCN)C(=O)N3)NC(=O)[C@H](C(C)C)NC(=O)[C@H](CC(C)C)NC(=O)[C@H](CC(N)=O)NC(=O)[C@@H]1CCCN1C(=O)[C@H](CCCNC(=N)N)NC2=O [compound 705] (H-DCLG[Nva]MRKCIPDNDKCCRPNLVCSRTHEWCKYVF-NH2; disulfide 2-17, 9-23, 16-30) | 0.43 µM | 33 µM | 3.4 µM
3 | CC[C@@H]1NC(=O)CNC(=O)[C@H](CC(C)C)NC(=O)[C@@H](NC(=O)[C@@H](N)CC(=O)O)CSSC[C@@H]2NC(=O)[C@@H]3CSSC[C@@H](C(=O)N[C@@H](CCCCN)C(=O)N[C@@H](Cc4ccc(O)cc4)C(=O)N[C@H](C(=O)N[C@@H](Cc4ccccc4)C(N)=O)C(C)C)NC(=O)[C@H](Cc4c[nH]c5ccccc45)NC(=O)[C@H](CCC(=O)O)NC(=O)[C@H](Cc4c[nH]cn4)NC(=O)[C@H]([C@@H](C)O)NC(=O)[C@H](CCCNC(=N)N)NC(=O)[C@H](CO)NC(=O)[C@H](CSSC[C@H](NC(=O)[C@H](CCCCN)NC(=O)[C@H](CCCNC(=N)N)NC(=O)[C@H](CCSC)NC1=O)C(=O)N[C@@H]([C@@H](C)CC)C(=O)N1CCC[C@H]1C(=O)N[C@@H](CC(=O)O)C(=O)N[C@@H](CC(N)=O)C(=O)N[C@@H](CC(=O)O)C(=O)N[C@@H](CCCCN)C(=O)N3)NC(=O)[C@H](C(C)C)NC(=O)[C@H](CC(C)C)NC(=O)[C@H](CC(N)=O)NC(=O)[C@@H]1CCCN1C(=O)[C@H](CCCNC(=N)N)NC2=O [compound 706] (H-DCLG[Abu]MRKCIPDNDKCCRPNLVCSRTHEWCKYVF-NH2; disulfide 2-17, 9-23, 16-30) | 1.4 µM | > 50 µM | > 5 µM
4 | CC[C@@H]1NC(=O)CNC(=O)[C@H](CC(C)C)NC(=O)[C@@H](NC(=O)[C@@H](N)CC(=O)O)CSSC[C@@H]2NC(=O)[C@@H]3CSSC[C@@H](C(=O)N[C@@H](CCCCN)C(=O)N[C@@H](Cc4ccc(O)cc4)C(=O)N[C@H](C(=O)N[C@@H](Cc4ccccc4)C(N)=O)C(C)C)NC(=O)[C@H](Cc4c[nH]c5ccccc45)NC(=O)[C@H](CCC(=O)O)NC(=O)[C@H](Cc4c[nH]cn4)NC(=O)[C@H]([C@@H](C)O)NC(=O)[C@H](CCCNC(=N)N)NC(=O)[C@H](CO)NC(=O)[C@H](CSSC[C@H](NC(=O)[C@H](CCCCN)NC(=O)[C@H](CCCNC(=N)N)NC(=O)[C@H](CC(C)C)NC1=O)C(=O)N[C@@H]([C@@H](C)CC)C(=O)N1CCC[C@H]1C(=O)N[C@@H](CC(=O)O)C(=O)N[C@@H](CC(N)=O)C(=O)N[C@@H](CC(=O)O)C(=O)N[C@@H](CCCCN)C(=O)N3)NC(=O)[C@H](C(C)C)NC(=O)[C@H](CC(C)C)NC(=O)[C@H](CC(N)=O)NC(=O)[C@@H]1CCCN1C(=O)[C@H](CCCNC(=N)N)NC2=O [compound 707] (H-DCLG[Abu]LRKCIPDNDKCCRPNLVCSRTHEWCKYVF-NH2; disulfide 2-17, 9-23, 16-30) | 1.2 µM | 6 µM | > 5 µM
5 | CCC[C@@H]1NC(=O)CNC(=O)[C@H](CC(C)C)NC(=O)[C@@H](NC(=O)[C@@H](N)CC(=O)O)CSSC[C@@H]2NC(=O)[C@@H]3CSSC[C@@H](C(=O)N[C@@H](CCCCN)C(=O)N[C@@H](Cc4ccc(O)cc4)C(=O)N[C@H](C(=O)N[C@@H](Cc4ccccc4)C(N)=O)C(C)C)NC(=O)[C@H](Cc4c[nH]c5ccccc45)NC(=O)[C@H](CCC(=O)O)NC(=O)[C@H](Cc4c[nH]cn4)NC(=O)[C@H]([C@@H](C)O)NC(=O)[C@H](CCCNC(=N)N)NC(=O)[C@H](CO)NC(=O)[C@H](CSSC[C@H](NC(=O)[C@H](CCCCN)NC(=O)[C@H](CCCNC(=N)N)NC(=O)[C@H](CC(C)C)NC1=O)C(=O)N[C@@H]([C@@H](C)CC)C(=O)N1CCC[C@H]1C(=O)N[C@@H](CC(=O)O)C(=O)N[C@@H](CC(N)=O)C(=O)N[C@@H](CC(=O)O)C(=O)N[C@@H](CCCCN)C(=O)N3)NC(=O)[C@H](C(C)C)NC(=O)[C@H](CC(C)C)NC(=O)[C@H](CC(N)=O)NC(=O)[C@@H]1CCCN1C(=O)[C@H](CCCNC(=N)N)NC2=O [compound 708] (H-DCLG[Nva]LRKCIPDNDKCCRPNLVCSRTHEWCKYVF-NH2; disulfide 2-17, 9-23, 16-30) | 0.37 µM | 31 µM | 2.8 µM
6 | CC[C@H](C)[C@@H]1NC(=O)[C@@H]2CSSC[C@@H]3NC(=O)[C@H](C(C)C)NC(=O)[C@H](CC(C)C)NC(=O)[C@H](CC(N)=O)NC(=O)[C@@H]4CCCN4C(=O)[C@H](CCCNC(=N)N)NC(=O)[C@H](CSSC[C@H](NC(=O)[C@@H](N)CC(=O)O)C(=O)N[C@@H](CC(C)C)C(=O)NCC(=O)N[C@@H](C(C)C)C(=O)N[C@@H](CC(C)C)C(=O)N[C@@H](CCCNC(=N)N)C(=O)N[C@@H](CCCCN)C(=O)N2)NC(=O)[C@H](CSSC[C@@H](C(=O)N[C@@H](CCCCN)C(=O)N[C@@H](Cc2ccc(O)cc2)C(=O)N[C@H](C(=O)N[C@@H](Cc2ccccc2)C(N)=O)C(C)C)NC(=O)[C@H](Cc2c[nH]c4ccccc24)NC(=O)[C@H](CCC(=O)O)NC(=O)[C@H](Cc2c[nH]cn2)NC(=O)[C@H]([C@@H](C)O)NC(=O)[C@H](CCCNC(=N)N)NC(=O)[C@H](CO)NC3=O)NC(=O)[C@H](CCCCN)NC(=O)[C@H](CC(=O)O)NC(=O)[C@H](CC(N)=O)NC(=O)[C@H](CC(=O)O)NC(=O)[C@@H]2CCCN2C1=O [compound 709] (H-DCLGVLRKCIPDNDKCCRPNLVCSRTHEWCKYVF-NH2; disulfide 2-17, 9-23, 16-30) | 0.74 µM | 43 µM | 4.8 µM

— patent publication US9340590B2 (priority 2011, dated 2016)
